# Assay results as given in patent US20100249243A1, “NOVEL BETA-HYDROXYKETONES AND BETA-ALKOXYKETONES WITH ESTROGENIC ACTIVITY” (priority 2007, published 2010).
# Read-outs that look alike come from different tables or passages of the source.
# Legend:
# [1] = target: T1, ERβ (Homo sapiens, UniProt Q92731); test: ERβ luciferase reporter (pERE2TATA-LUC) transactivation assay in transfected HEK293 cells; assay type: cell-based; parameters: expressed in transfected cells; host or cells: HEK293; conditions: for ERβ in vitro activity (receptor activation relative to 10 nM E2): Table 2, previously published compounds, test compound 10 μM; for ERβ in vitro activity (receptor activation relative to 10 nM E2) / ERβ receptor activation relative to 10 nM E2 corresponding 100: 24 hours; for Emax at 10 µM: HEK293, 24 h; for ERβ receptor activation relative to 10 nM E2 corresponding 100: Table 1, sample concentration 10 μM, mean of at least three independent transfections, SEM typically <15%
# Method: (§1) All other reagents were of reagent grade from Sigma or Fluka. One day before transfection, HEK293 cells were seeded in 48-well plates (70×10^3 cells per well) in phenol-free Dulbecco's modified Eagle medium supplemented with 5% delipidated fetal bovine serum (Sigma) and antibiotics. After a medium change, the cells were transfected for 4 hours with 5 ng ERα or ERβ expression vector, 75 ng reporter plasmid pERE2TATA-LUC and 20 ng control plasmid pCMVβ by the calcium phosphate method. After transfection, the cells received fresh medium containing either vehicle (0.1% v/v) or test compound (10 μM). After 24 hours, the cells were washed, lysed and luciferase and β-galactosidase activities were determined from 20 μl of lysates with the Victor^2TM reader (PerkinElmer Wallac, Turku, Finland). […] The data are means±SEM of at least three independent transfections.
# [2] = target: T1, ERβ; test: Competitive binding assay against [6,7-3H(N)]estradiol in transiently transfected COS-1 cells, ERβ; conditions: for IC50: ERβ IC50 (median inhibition concentration), competition against labeled E2, COS-1 cells with pSG5-hERβ, 2 hours at 37° C.; for ERβ RBA (relative binding affinity): in comparison to E2 = 100
# Method: (§2) Relative binding affinities (RBA) were measured by a competitive assay against [6, 7-^3H(N)]estradiol (PerkinElmer) in transsiently transfected COS-1 cells. […] After 2 hours of incubation at 37° C. the medium was removed. The cells were removed from the wells to 150 μl of 1× phosphate buffered saline (PBS), transferred to Eppendorf tubes and centrifuged at 4° C. using 4000 g for 5 min, and then washed twice with 150 μl of PBS. The cell pellets were dissolved to 50 μl of 0.5M NaOH and incubated for 15 min at 56° C., after which the samples were transferred to liquid twinkle tubes and treated with 3 ml of OptiPhase HiSafe 3 twinkle solution (PerkinElmer).
# [3] = target: T2, ERα (Homo sapiens, UniProt P03372); test: ERα luciferase reporter (pERE2TATA-LUC) transactivation assay in transfected HEK293 cells; assay type: cell-based; parameters: expressed in transfected cells; host or cells: HEK293; conditions: 24 hours; for ERα in vitro activity (receptor activation relative to 10 nM E2): Table 2, previously published compounds, test compound 10 μM; for ERα receptor activation relative to 10 nM E2 corresponding 100: Table 1, sample concentration 10 μM, mean of at least three independent transfections, SEM typically <15%
# T2 sequence (P03372 1-595): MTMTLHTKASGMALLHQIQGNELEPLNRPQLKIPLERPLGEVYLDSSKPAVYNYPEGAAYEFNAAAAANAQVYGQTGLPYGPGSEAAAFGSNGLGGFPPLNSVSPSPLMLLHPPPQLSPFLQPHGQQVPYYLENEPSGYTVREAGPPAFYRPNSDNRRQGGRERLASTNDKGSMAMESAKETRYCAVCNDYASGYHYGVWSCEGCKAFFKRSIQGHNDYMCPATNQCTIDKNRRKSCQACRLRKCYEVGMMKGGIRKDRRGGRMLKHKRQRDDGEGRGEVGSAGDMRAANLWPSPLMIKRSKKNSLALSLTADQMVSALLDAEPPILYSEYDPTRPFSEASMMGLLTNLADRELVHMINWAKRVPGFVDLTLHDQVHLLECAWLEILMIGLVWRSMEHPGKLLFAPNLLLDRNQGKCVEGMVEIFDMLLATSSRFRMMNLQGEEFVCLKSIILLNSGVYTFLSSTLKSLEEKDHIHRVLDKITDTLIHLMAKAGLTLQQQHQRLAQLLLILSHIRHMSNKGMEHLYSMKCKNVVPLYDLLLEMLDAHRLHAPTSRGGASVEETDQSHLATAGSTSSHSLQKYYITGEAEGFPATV
# Method: as §1
# [4] = target: T2, ERα; test: Competitive binding assay against [6,7-3H(N)]estradiol in transiently transfected COS-1 cells, ERα; conditions: for IC50: ERα IC50 (median inhibition concentration), competition against labeled E2, COS-1 cells with pSG5-hERα, 2 hours at 37° C.; for ERα RBA (relative binding affinity): in comparison to E2 = 100
# Method: as §2
# [5] = read-out: ERβ receptor activation relative to 10 nM E2 corresponding 100, Table 1, sample concentration 10 μM, mean of at least three independent transfections, SEM typically <15%
# [6] = read-out: ERβ in vitro activity (receptor activation relative to 10 nM E2), Table 2, previously published compounds, test compound 10 μM
# T1 sequence (Q92731 whole entry): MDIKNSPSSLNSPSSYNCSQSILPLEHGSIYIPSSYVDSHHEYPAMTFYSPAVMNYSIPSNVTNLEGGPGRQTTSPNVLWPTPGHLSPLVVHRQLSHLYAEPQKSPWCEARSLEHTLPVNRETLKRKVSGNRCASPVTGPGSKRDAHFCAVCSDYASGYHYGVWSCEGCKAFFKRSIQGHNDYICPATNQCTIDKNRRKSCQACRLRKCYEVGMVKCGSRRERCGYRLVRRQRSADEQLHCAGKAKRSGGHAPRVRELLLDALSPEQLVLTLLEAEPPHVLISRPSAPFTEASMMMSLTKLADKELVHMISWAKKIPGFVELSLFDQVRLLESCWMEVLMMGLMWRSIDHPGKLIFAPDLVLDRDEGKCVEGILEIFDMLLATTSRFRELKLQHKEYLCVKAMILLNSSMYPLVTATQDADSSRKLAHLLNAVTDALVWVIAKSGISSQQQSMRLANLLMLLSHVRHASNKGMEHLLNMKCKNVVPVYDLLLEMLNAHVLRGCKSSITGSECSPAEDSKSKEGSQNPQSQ
IC50 [2] [nM],ERβ RBA (relative binding affinity) [2] [%],IC50 [4] [nM],ERα RBA (relative binding affinity) [4] [%],"Emax at 10 µM [1, 5] [%]",ERα receptor activation relative to 10 nM E2 corresponding 100 [3] [%],SMILES,further results
11000,0.018,2170,0.090,–,–,"O=C(CCCc1ccccc1)CC(O)c1ccccc1 (single isomer, unassigned) [Compound 59b, 1-Hydroxy-1,6-diphenyl-hexan-3-one]",ERβ in vitro activity (receptor activation relative to 10 nM E2) [1]: 28.2%; ERα in vitro activity (receptor activation relative to 10 nM E2) [3]: 59.3%
1090,0.180,1700,0.115,–,–,"O=C(CCCc1ccccc1)CC(O)c1ccccc1 (single isomer, unassigned) [Compound 59a, 1-Hydroxy-1,6-diphenyl-hexan-3-one]",ERβ in vitro activity (receptor activation relative to 10 nM E2) [1]: 147.3%; ERα in vitro activity (receptor activation relative to 10 nM E2) [3]: 91.4%
1080,0.181,105,1.867,82.3,105.2,"O=C(CCCc1ccc(O)cc1)CC(O)Cc1ccccc1 (centres unmarked) [Compound 40ab, 2-Hydroxy-7-(4-hydroxy-phenyl)-1-phenyl-heptan-4-one]",–
1250,0.157,7900,0.025,107,55.0,"O=C(CCc1ccc(O)cc1)CC(O)Cc1ccccc1 (centres unmarked) [Compound 31ab, 5-Hydroxy-1-(4-hydroxy-phenyl)-6-phenyl-hexan-3-one]",–
10.5,18.67,2.13,92.02,–,140.0,"O=C(CCCc1ccc(O)cc1)CC(O)c1ccccc1 (single isomer, unassigned) [Compound 34b, 1-Hydroxy-6-(4-hydroxy-phenyl)-1-phenyl-hexan-3-one]",ERβ receptor activation relative to 10 nM E2 corresponding 100 [1]: 155.3%
–,–,–,–,–,15.4,"O=C(CCCc1ccc(O)cc1)CC(O)Cc1ccc(O)cc1 (single isomer, unassigned) [Compound 42a, 2-Hydroxy-1,7-di-(4-hydroxy-phenyl)-heptan-4-one]",ERβ receptor activation relative to 10 nM E2 corresponding 100 [1]: 1.8%
–,–,–,–,11.1,21.6,"O=C(CCc1ccccc1O)CC(O)Cc1ccc(F)cc1 (centres unmarked) [Compound 32ab, 6-(4-Fluoro-phenyl)-5-hydroxy-1-(2-hydroxy-phenyl)-hexan-3-one]",–
–,–,–,–,1.3,9.9,"COC(CC(=O)CCc1ccccc1)Cc1ccccc1 (centres unmarked) [Compound 46ab, 5-Methoxy-1,6-diphenyl-hexan-3-one]",–
–,–,–,–,–,–,"CC(O)(CC(=O)CCc1ccccc1)c1ccccc1 (centres unmarked) [Compound 57ab, 5-Hydroxy-1,5-diphenyl-hexan-3-one]","Emax at 10 µM [1, 6]: 38.4%; ERα in vitro activity (receptor activation relative to 10 nM E2) [3]: 52.1%"
–,–,–,–,116,80.3,"CC(O)(CC(=O)CCc1ccc(O)cc1)c1ccccc1 (centres unmarked) [Compound 23ab, 5-Hydroxy-1-(4-hydroxy-phenyl)-5-phenyl-hexan-3-one]",–
–,–,–,–,58,22.6,"O=C(CC(O)Cc1ccccc1)c1ccc(O)cc1 (centres unmarked) [Compound 18ab, 3-Hydroxy-1-(4-hydroxyphenyl)-4-phenyl-butan-1-one]",–
–,–,–,–,-14.6,3.1,"COC(CCc1ccccc1)CC(=O)CCCc1ccccc1 (centres unmarked) [Compound 52ab, 3-Methoxy-1,8-diphenyl-octan-5-one]",–
3.4,57.65,0.9,217.8,170,139.2,"O=C(CCCc1ccc(O)cc1)CC(O)c1ccccc1 (single isomer, unassigned) [Compound 34a, 1-Hydroxy-6-(4-hydroxy-phenyl)-1-phenyl-hexan-3-one]",–
2050,0.096,810,0.242,15.1,83.3,"CC(O)(CC(=O)CCCc1ccccc1)c1ccccc1 (centres unmarked) [Compound 36ab, 6-Hydroxy-1,6-diphenyl-heptan-4-one]",–
–,–,–,–,–,12.4,"O=C(CCc1ccccc1)CC(O)Cc1ccc2ccccc2c1 (single isomer, unassigned) [Compound 28a, 5-Hydroxy-6-naphthalen-2-yl-1-phenyl-hexan-3-one]",ERβ receptor activation relative to 10 nM E2 corresponding 100 [1]: 6.4%
–,–,–,–,-7.1,2.2,"O=C(CCCc1ccccc1)CC(O)CCc1ccccc1 (centres unmarked) [Compound 43ab, 6-Hydroxy-1,8-diphenyl-octan-4-one]",–
–,–,–,–,–,–,"CC(O)(CC(=O)CCCc1ccccc1)c1ccccc1 (centres unmarked) [Compound 60ab, 6-Hydroxy-1,6-diphenyl-heptan-4-one]","Emax at 10 µM [1, 6]: 15.1%; ERα in vitro activity (receptor activation relative to 10 nM E2) [3]: 83.3%"
–,–,–,–,6.1,51.4,"O=C(CCc1ccccc1)CC(O)Cc1ccc(O)cc1 (centres unmarked) [Compound 25ab, 5-Hydroxy-6-(4-hydroxy-phenyl)-1-phenyl-hexan-3-one]",–
–,–,–,–,–,–,"COC(CCc1ccccc1)CC(=O)c1ccccc1 (centres unmarked) [Compound 62ab, 3-Methoxy-1,5-diphenyl-pentan-1-one]","Emax at 10 µM [1, 6]: 28.8%; ERα in vitro activity (receptor activation relative to 10 nM E2) [3]: 38.1%"
–,–,–,–,12.4,30.4,"COC(CC(=O)CCc1ccccc1)Cc1ccc2ccccc2c1 (centres unmarked) [Compound 50ab, 5-Methoxy-6-naphthalen-2-yl-1-phenyl-hexan-3-one]",–
